Laboratory results taken from patent US8569314B2, “Triazolo and tetrazolo pyrimidine derivatives as HNE inhibitors for treating COPD” (Bayer Intellectual Property GmbH, priority 2009, dated 2013).
Structures can show the parent of a compound that is named as a salt.

What was measured:
[1] = biological target: human neutrophil elastase (HNE) (Homo sapiens (Human), UniProt P08246); assay: In vitro HNE inhibition assay (fluorogenic peptide substrate MeOSuc-Ala-Ala-Pro-Val-AMC); assay type: biochemical; conditions: HNE concentration of 80 pM; 37° C., 2 hours
Description: B-1. In Vitro HNE Inhibition Assay
The potency of the compounds of the invention is ascertained in an in vitro inhibition assay. The HNE-mediated amidolytic cleavage of a suitable peptide substrate leads in this connection to an increase in the fluorescent light. The signal intensity of the fluorescent light is directly proportional to the enzyme activity. The effective concentration of a test compound at which half the enzyme is inhibited (50% signal intensity of the fluorescent light) is indicated as IC50.
Enzyme (80 pM HNE; from Serva, Heidelberg) and substrate (20 μM MeOSuc-Ala-Ala-Pro-Val-AMC; from Bachem, Weil am Rhein) are incubated in an assay volume of in total 50 μl of assay buffer (0.1 M HEPES pH 7.4, 0.5 M NaCl, 0.1% w/v BSA, 1% v/v DMSO) in a 384-well microtiter plate in the presence and absence of the test substance at 37° C. for 2 hours. The intensity of the fluorescent light from the assay mixtures is measured (Ex. 380 nm, Em. 460 nm). The IC50 values are determined by plotting the intensity of the fluorescent light against the active substance concentration.

pancreas elastase = pancreas elastase (Sus scrofa (Pig), UniProt P00772); conditions: cited from earlier work
pancreas elastase, sequence (P00772 27-266): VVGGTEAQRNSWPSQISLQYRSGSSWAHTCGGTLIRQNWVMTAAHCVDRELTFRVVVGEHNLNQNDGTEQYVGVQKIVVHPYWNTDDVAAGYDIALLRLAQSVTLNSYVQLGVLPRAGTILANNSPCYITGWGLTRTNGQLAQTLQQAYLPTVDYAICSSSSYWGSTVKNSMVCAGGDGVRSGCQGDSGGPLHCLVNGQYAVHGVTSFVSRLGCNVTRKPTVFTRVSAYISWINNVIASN

human neutrophil elastase (HNE), sequence (P08246 30-267): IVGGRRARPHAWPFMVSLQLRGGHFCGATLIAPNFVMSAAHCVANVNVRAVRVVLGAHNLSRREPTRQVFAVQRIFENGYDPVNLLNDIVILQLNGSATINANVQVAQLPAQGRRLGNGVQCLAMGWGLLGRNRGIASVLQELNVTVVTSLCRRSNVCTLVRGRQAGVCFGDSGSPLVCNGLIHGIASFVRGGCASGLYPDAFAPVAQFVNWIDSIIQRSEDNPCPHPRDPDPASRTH

| Structure (SMILES) | IC50 [1] | IC50 (pancreas elastase) |
| --- | --- | --- |
| CC1=C(C#N)C(c2ccc(C#N)cc2S(C)(=O)=O)n2nc(N3C(=O)c4ccccc4C3=O)nc2N1c1cccc(C(F)(F)F)c1 (racemic) [Example 5, (rac)-7-[4-Cyano-2-(methylsulfonyl)phenyl]-2-(1,3-dioxo-1,3-dihydro-2H-isoindol-2-yl)-5-methyl-4-[3-(trifluoromethyl)phenyl]-4,7-dihydro[1,2,4]triazolo[1,5-a]pyrimidine-6-carbonitrile] | < 0.3 nM | – |
| CCOC(=O)C1=C(C)N(c2cccc(C(F)(F)F)c2)c2nc3cncnc3n2C1c1ccc(C#N)cc1 (racemic) [Example 78, Ethyl(rac)-9-(4-cyanophenyl)-7-methyl-6-[3-(trifluoromethyl)phenyl]-6,9-dihydropyrimido[1,2-e]-purin-8-carboxylate] | 3 nM | – |
| CC1=C(C#N)[C@@H](c2ccc(C#N)cc2S(C)(=O)=O)n2nc(N)nc2N1c1cccc(C(F)(F)F)c1 [Example 9, (7S)-2-Amino-7-[4-cyano-2-(methylsulfonyl)phenyl]-5-methyl-4-[3-(trifluoromethyl)phenyl]-4,7-dihydro[1,2,4]triazolo[1,5-a]pyrimidine-6-carbonitrile hydrochloride] | < 0.3 nM | – |
| CC1=C(C#N)[C@@H](c2ccc(C#N)cc2)n2nc(NC(=O)C3CCCCC3)nc2N1c1cccc(C(F)(F)F)c1 [Example 23, N-{(7R)-6-Cyano-7-(4-cyanophenyl)-5-methyl-4-[3-(trifluoromethyl)phenyl]-4,7-dihydro[1,2,4]triazolo[1,5-a]pyrimidin-2-yl}cyclohexanecarboxamide] | < 0.3 nM | – |
| CC1=C(C#N)[C@@H](c2ccc(C#N)cc2S(C)(=O)=O)n2nc(NC(=O)C3CC3)nc2N1c1cccc(C(F)(F)F)c1 [Example 35, N-{(7S)-6-Cyano-7-[4-cyano-2-(methylsulfonyl)phenyl]-5-methyl-4-[3-(trifluoromethyl)phenyl]-4,7-dihydro[1,2,4]triazolo[1,5-a]pyrimidin-2-yl}cyclopropanecarboxamide] | < 0.3 nM | – |
| CCOC(=O)Nc1nc2n(n1)C(c1ccc(C#N)cc1)C(C(=O)OCC)=C(C)N2c1cccc(C(F)(F)F)c1 (centres unmarked) [Example 50, Ethyl 7-(4-cyanophenyl)-2-[(ethoxycarbonyl)amino]-5-methyl-4-[3-(trifluoromethyl)phenyl]-4,7-dihydro[1,2,4]triazolo[1,5-a]pyrimidine-6-carboxylate] | < 0.3 nM | – |
| CCOC(=O)C1=C(C)N(c2cccc(C(F)(F)F)c2)c2nccn2[C@@H]1c1ccc(C#N)cc1 [Example 90, Ethyl (5R)-5-(4-cyanophenyl)-7-methyl-8-[3-(trifluoromethyl)phenyl]-5,8-dihydroimidazo[1,2-a]-pyrimidine-6-carboxylate] | 6.5 nM | – |
| CC(C)(C)C(=O)Oc1ccc(S(=O)(=O)Nc2ccccc2C(=O)NCC(=O)O)cc1 [sivelestat] | – | 5.6 µM |

The next lines start with results.

| IC50 [1] | Structure (SMILES) | IC50 (pancreas elastase) |
| --- | --- | --- |
| 85 nM | CC1=C(C#N)C(c2ccc(C#N)cc2)n2nc(C(C)C)nc2N1c1cccc(C(F)(F)F)c1 (racemic) [Example 67, (rac)-7-(4-Cyanophenyl)-5-methyl-2-(1-methylethyl)-4-[3-(trifluoromethyl)phenyl]-4,7-dihydro-[1,2,4]triazolo[1,5-a]pyrimidine-6-carbonitrile] | – |
| < 0.3 nM | CC1=C(C#N)[C@@H](c2ccc(C#N)cc2)n2nc(NC(=O)NCCO)nc2N1c1cccc(C(F)(F)F)c1 [Example 53, 1-{(7R)-6-Cyano-7-(4-cyanophenyl)-5-methyl-4-[3-(trifluoromethyl)phenyl]-4,7-dihydro[1,2,4]triazolo[1,5-a]pyrimidin-2-yl}-3-(2-hydroxyethyl)urea] | – |
| < 0.3 nM | CCNc1nc2n(n1)[C@H](c1ccc(C#N)cc1)C(C#N)=C(C)N2c1cccc(C(F)(F)F)c1 [Example 56, (7R)-7-(4-Cyanophenyl)-2-(ethylamino)-5-methyl-4-[3-(trifluoromethyl)phenyl]-4,7-dihydro-[1,2,4]triazolo[1,5-a]pyrimidine-6-carbonitrile] | – |
